Drawing on patent US11505558B1, “Antiviral heterocyclic compounds” (Enanta Pharmaceuticals, Inc., priority 2019, dated 2022), this text covers EC50 for 38 molecules.

Broadly, the EC50 is the midpoint of the concentration-response curve.

Each structure is given as a SMILES string.

The assay relates to genotype A, "Long" strain RSV. Briefly: RSV-A assay (CPE, ATPlite readout in Hep-2 cells). The format is cell-based. The conditions noted are these: human respiratory syncytial virus, HEp-2, Hep-2 cells, genotype A "Long" strain RSV, MOI 0.1; read-out: Human RSV-A (“Long” strain) EC50. An excerpt:
Hep-2 cells, (originally derived from tumors grown in irradiated-cortisonised weanling rats that had been injected with epidermoid carcinoma tissue from a person's larynx, but later found to be indistinguishable from HeLa cells by PCR DNA analysis), were used for the culturing of genotype A, “Long” strain RSV. Flasks were inoculated with RSV and viral stocks were collected once cytopathic effect (CPE) was greater than […]. Viral stocks in […] sucrose media were snap frozen using liquid nitrogen to increase viral stability. Viral stock titers were quantified by tissue culture infectious dose 50% (TCID50) using 8,000 cells per well and 3-fold viral dilutions across a 96-well plate, cultured for 4 days. Viral stock titers were also quantified by a plaque forming unit assay, as described elsewhere.
Following extensive parameter testing, the final assay is run as follows: Hep-2 cells are seeded into the inner 60 wells of a 96-well plate at 8,000 cells per well in a volume of 50 μL using Growth Media (DMEM without phenol red, 1% L-Glut, 1% Penn/Strep, 1% nonessential amino acids, 10% heat-inactivated FBS). 2-fold serial dilutions of control and test compounds are added to the wells in duplicate in a total volume of 25 μL. Viral stock is then added to the wells at a multiplicity of infection (MOI) of 0.1 in a volume of 25 μL, bringing the total volume of each well to 100 μL. The MOI is calculated using the PFU/mL, or TCID50 if unavailable. Each 96-well plate has a control column of 6 wells with cells and virus but no compound (negative control, max CPE), a column with cells but no compound or virus (positive control, minimum CPE), and a column with no cells or virus or compound (background plate/reagent control). The control wells with cells but no virus are given an additional 25 μL of growth media containing an equal quantity of sucrose as those wells receiving the viral stock in order to keep consistent in media and volume conditions. The outer wells of the plate are filled with 125 μL of moat media (DMEM, 1% Penn/Strep) to act as a thermal and evaporative moat around the test wells. Following a 5-day incubation period, the plates are read using ATPlite (50 uL added per well), which quantifies the amount of ATP (a measure of cell health) present in each well. Assay plates are read using the Envision luminometer. […] EC50 ranges are as follows: A<0.2 μM; B>0.2 μM.
Background: In ATP-based viability assays light output follows the ATP content of the culture.
In the case of `Cc1cccc(-c2ccc(C(=O)NC[C@](O)(c3cc4c(c(-c5ccc(F)cc5)n3)OC[C@]4(C)C(N)=O)C(F)(F)F)cc2OC2CC2)n1` [Example 158], the EC50 is > 200 nM.
Regarding `C[C@]1(C(N)=O)COc2c1cc([C@@](O)(CNC(=O)c1ccc(N3CCC3)c(OC3CC3)c1)C(F)(F)F)nc2-c1ccc(F)cc1` [Example 159], the concentration for a half-maximal effect (EC50) is < 200 nM.
For `C[C@]1(C(N)=O)COc2c1cc([C@@](O)(CNC(=O)c1ccc(N3CCOCC3)c(OC3CC3)c1)C(F)(F)F)nc2-c1ccc(F)cc1` [Example 160] the value was > 200 nM; for `C[C@]1(C(N)=O)COc2c1cc([C@@](O)(CNC(=O)c1ccc(N3CCCCC3)c(OC3CC3)c1)C(F)(F)F)nc2-c1ccc(F)cc1` [Example 161], > 200 nM.
For `C[C@]1(C(N)=O)COc2c1cc([C@@](O)(CNC(=O)c1ccc(-c3cccc(C(F)(F)F)n3)c(OC3CC3)c1)C(F)(F)F)nc2-c1ccc(F)cc1` [Example 162] the value was > 200 nM.
With `C[C@]1(C(N)=O)COc2c1cc([C@@](O)(CNC(=O)c1ccc(-c3ncccn3)c(OC3CC3)c1)C(F)(F)F)nc2-c1ccc(F)cc1` [Example 163] the figure was > 200 nM; with `Cc1ncc(-c2ccc(C(=O)NC[C@](O)(c3cc4c(c(-c5ccc(F)cc5)n3)OC[C@]4(C)C(N)=O)C(F)(F)F)cc2OC2CC2)cn1` [Example 164], > 200 nM.
Consider `C[C@]1(C(N)=O)COc2c1cc([C@@](O)(CNC(=O)c1ccc(-c3cnc(C4CC4)nc3)c(OC3CC3)c1)C(F)(F)F)nc2-c1ccc(F)cc1` [Example 165], for which the EC50 was > 200 nM.
For `C[C@]1(C(N)=O)COc2c1cc([C@@](O)(CNC(=O)c1ccc(-c3cnccn3)c(OC3CC3)c1)C(F)(F)F)nc2-c1ccc(F)cc1` [Example 166] the value was < 200 nM.
With `Cc1cnc(-c2ccc(C(=O)NC[C@](O)(c3cc4c(c(-c5ccc(F)cc5)n3)OC[C@]4(C)C(N)=O)C(F)(F)F)cc2OC2CC2)cn1` [Example 167] the figure was > 200 nM; with `C[C@]1(C(N)=O)COc2c1cc([C@@](O)(CNC(=O)c1ccc(-c3ccnnc3)c(OC3CC3)c1)C(F)(F)F)nc2-c1ccc(F)cc1` [Example 168], < 200 nM.
For `C[C@]1(C(N)=O)COc2c1cc([C@@](O)(CNC(=O)c1ccc(-c3ccc(=O)[nH]c3)c(OC3CC3)c1)C(F)(F)F)nc2-c1ccc(F)cc1` [Example 169] the value was > 200 nM; for `C[C@]1(C(N)=O)COc2c1cc([C@@](O)(CNC(=O)c1ccc(-c3ccncn3)c(OC3CC3)c1)C(F)(F)F)nc2-c1ccc(F)cc1` [Example 170], > 200 nM; for `C[C@]1(C(N)=O)COc2c1cc([C@@](O)(CNC(=O)c1ccc(-c3ncco3)c(OC3CC3)c1)C(F)(F)F)nc2-c1ccc(F)cc1` [Example 171], < 200 nM.
In the case of `Cc1noc(C)c1-c1ccc(C(=O)NC[C@](O)(c2cc3c(c(-c4ccc(F)cc4)n2)OC[C@]3(C)C(N)=O)C(F)(F)F)cc1OC1CC1` [Example 172], the EC50 is > 200 nM.
For `C[C@]1(C(N)=O)COc2c1cc([C@@](O)(CNC(=O)c1ccc(-c3nccs3)c(OC3CC3)c1)C(F)(F)F)nc2-c1ccc(F)cc1` [Example 173] the value was > 200 nM.
For `C[C@]1(C(N)=O)COc2c1cc([C@@](O)(CNC(=O)c1ccc(-c3cscn3)c(OC3CC3)c1)C(F)(F)F)nc2-c1ccc(F)cc1` [Example 174] the value was > 200 nM.
In the case of `C[C@]1(C(N)=O)COc2c1cc([C@@](O)(CNC(=O)c1ccc(-c3cncs3)c(OC3CC3)c1)C(F)(F)F)nc2-c1ccc(F)cc1` [Example 175], the EC50 is < 200 nM.
For `Cc1ncc(-c2ccc(C(=O)NC[C@](O)(c3cc4c(c(-c5ccc(F)cc5)n3)OC[C@]4(C)C(N)=O)C(F)(F)F)cc2OC2CC2)s1` [Example 176] the value was > 200 nM; for `COc1ncc(-c2ccc(C(=O)NC[C@](O)(c3cc4c(c(-c5ccc(F)cc5)n3)OC[C@]4(C)C(N)=O)C(F)(F)F)cc2OC2CC2)s1` [Example 177], > 200 nM; for `C[C@]1(C(N)=O)COc2c1cc([C@@](O)(CNC(=O)c1ccc(C3=CCOCC3)c(OC3CC3)c1)C(F)(F)F)nc2-c1ccc(F)cc1` [Example 178], > 200 nM.
Regarding `Cc1nocc1-c1ccc(C(=O)NC[C@](O)(c2cc3c(c(-c4ccc(F)cc4)n2)OC[C@]3(C)C(N)=O)C(F)(F)F)cc1OC1CC1` [Example 181], the EC50 was < 200 nM.
In the case of `COc1cc(C(=O)NC[C@](O)(c2cc3c(c(-c4ccc(F)cc4)n2)OC[C@]3(C)C(N)=O)C(F)(F)F)ccc1-c1ncc(C)o1` [Example 182], the EC50 is < 200 nM.
With `COc1cc(C(=O)NC[C@](O)(c2cc3c(c(-c4ccc(F)cc4)n2)OC[C@]3(C)C(N)=O)C(F)(F)F)ccc1-c1cnoc1` [Example 184] the figure was < 200 nM; with `COc1cc(C(=O)NC[C@](O)(c2cc3c(c(-c4ccc(F)cc4)n2)OC[C@]3(C)C(N)=O)C(F)(F)F)ccc1-c1cnoc1C` [Example 185], < 200 nM; with `COc1cc(C(=O)NC[C@](O)(c2cc3c(c(-c4ccc(F)cc4)n2)OC[C@]3(C)C(N)=O)C(F)(F)F)ccc1-c1conc1C` [Example 186], < 200 nM.
With `COc1cc(C(=O)NC[C@](O)(c2cc3c(c(-c4ccc(F)cc4)n2)OC[C@]3(C)C(N)=O)C(F)(F)F)ccc1-c1cnco1` [Example 187] the figure was < 200 nM; with `COc1cc(C(=O)NC[C@](O)(c2cc3c(c(-c4ccc(F)cc4)n2)OC[C@]3(C)C(N)=O)C(F)(F)F)ccc1OCCN1CCOCC1` [Example 188], > 200 nM.
Turning to `COc1cc(C(=O)NC[C@](O)(c2cc3c(c(-c4ccc(F)cc4)n2)OC[C@]3(C)C(N)=O)C(F)(F)F)ccc1OCCN1CCCCC1` [Example 189], the EC50 is > 200 nM.
For the molecule `COc1cc(C(=O)NC[C@](O)(c2cc3c(c(-c4ccc(F)cc4)n2)OC[C@]3(C)C(N)=O)C(F)(F)F)ccc1OCCN1CCN(C)CC1` [Example 190], the EC50 was > 200 nM.
Turning to `COc1cc(C(=O)NC[C@](O)(c2cc3c(c(-c4ccc(F)cc4)n2)OC[C@]3(C)C(N)=O)C(F)(F)F)ccc1-c1coc(C)n1` [Example 197], the EC50 is > 200 nM.
For `C[C@]1(C(N)=O)COc2c1cc([C@@](O)(CNC(=O)c1ccc(-c3cocn3)c(OC3CC3)c1)C(F)(F)F)nc2-c1ccc(F)cc1` [Example 198] the value was < 200 nM; for `COc1cc(C(=O)NC[C@](O)(c2cc3c(c(-c4ccc(F)cc4)n2)OC[C@]3(C)C(N)=O)C(F)(F)F)ccc1-c1cocn1` [Example 199], < 200 nM.
As to `COc1cc(C(=O)NC[C@](O)(c2cc3c(c(-c4ccc(F)cc4)n2)OC[C@]3(C)C(N)=O)C(F)(F)F)ccc1-c1nnco1` [Example 200], the concentration giving a half-maximal response (EC50) is < 200 nM.
For `COc1cc(C(=O)NC[C@](O)(c2cc3c(c(-c4ccc(F)cc4)n2)OC[C@]3(C)C(N)=O)C(F)(F)F)ccc1-c1nncs1` [Example 201] the value was < 200 nM.
With `C[C@@H](O)COc1ccc(C(=O)NC[C@](O)(c2cc3c(c(-c4ccc(F)cc4)n2)OC[C@]3(C)C(N)=O)C(F)(F)F)cc1-c1cncnc1` [Example 203] the figure was > 200 nM.
With `C[C@@H](O)COc1ccc(C(=O)NC[C@](O)(c2cc3c(c(-c4ccc(F)cc4)n2)OC[C@]3(C)C(N)=O)C(F)(F)F)cc1-c1cccnc1` [Example 204] the figure was > 200 nM.
As to `C[C@]1(C(N)=O)COc2c1cc([C@@](O)(CNC(=O)c1cc(Cl)c3ncccc3c1)C(F)(F)F)nc2-c1ccc(F)c(Cl)c1` [Example 220], the EC50 was < 200 nM.
